# Experimental data: US9400281B2, “Method of screening of therapeutic agents for K-Ras mutant driven cancers” (PUSAN NATIONAL UNIVERSITY INDUSTRY-UNIVERSITY COOPERATION …, priority 2008, dated 2016)
# Where two headings read alike, the source gives them in different places.
# Assays:
# [1] = tested on: SNAIL and p53 binding; assay: ELISA system for screening SNAIL-p53 binding inhibitors; set-up: species or system human; conditions: His-p53 (93-292) and GST SNAIL
# Method: To isolate SNAIL-p53 binding inhibitor, ELISA system was prepared. His-p53 (93-292) was immobilized on 96 well plates using 0.5 PFA. After drying and washing, the 96 well plates were incubated with GST SNAIL with 0.1 μM of chemicals (final concentration). After 1 hour incubation, the 96 well plates were washed with TBST and incubated with anti-GST-antibody (1: 10000, 45 min) and anti-mouse-IgG-HRP (1; 50000, 30 min). After washing twice, plates were incubated with a TMB solution and a stop solution. Measurement was performed using an ELISA plate reader.
# [2] = tested on: SNAIL-mediated p53 suppression; assay: Effect on SNAIL-mediated p53 reduction in transfected cells; assay type: cell-based; conditions: SNAIL (or K-Ras) transfected cells
# Method: Also, the effect of the chemicals on SNAIL-mediated p53 suppression was checked. As shown in FIGS. 10E and 10F, p53 reduction by co-transfection of SNAIL was blocked by treatment of chemicals by #3 and #9.
# The reduction of p53 by SNAIL was confirmed in real time (see FIG. 13D). Expression of p53 in culture-media was checked and within 2 hours, the expression of p53 in media was detected (see FIG. 13E). Moreover, p53 was detected in cytosol as a vesicle-like-structure in SNAIL or K-Ras transfected cells, and finally detected in an extracellular region (see FIG. 13F). Meanwhile, SNAIL was located in vesicle of cytosol with p53 (see FIG. 17A).
# Since p53 is reduced by vesicle-like transport, p53 expression was checked by disrupting cytoskeleton-network by Nocodazole (Noc). […] Despite of cytoplasmic vesicle-like staining of p53 in Noc-treated cells, cellular morphology was changed differentially from control cells (see FIG. 14B). Noc blocked the p53 reduction (see FIG. 14C). Median p53 was disappeared by Noc-treatment, whereas p53 was accumulated in cytoplasm as vesicle (see FIGS. 14D and 14E). Aph/Noc blocked the reduction of p53, which was not achieved by LMB (FIGS. 14F and 14G).
# [3] = tested on: MKN45 (K-Ras wild type cancer cell line); assay: Cell death rate by tryphan blue cell counting, MKN45; assay type: cell-based
# Source text: (§1) To confirm that the p53 induction of the compounds is related to K-Ras, A549 and HCT116, which are K-Ras mutant cancer cell lines, and MKN45, which is K-Ras wild type cancer cell line, were used.
# [4] = tested on: A549 (K-Ras mutant cancer cell line); assay: Cell death rate by tryphan blue cell counting, A549; assay type: cell-based; conditions: A549 (A546 [sic])
# Source text: as §1
# [5] = tested on: MDA-MB 468; assay: Western blot of p21 expression in mutant p53 MDA-MB 468 cells; assay type: cell-based, human; conditions: for Expression ratio of gene to control, p21: DMSO control = 1.0
# [6] = tested on: SNAIL-p53 binding; assay: GST pull down assay of SNAIL-p53 binding (Experimental Example 2); set-up: species or system human; conditions: FIG. 21
# Method: GST pull down assay is a method for identifying a binding degree of two proteins. GST-fused SNAIL protein and p53 recombinant protein were prepared and treated with the compound 5o or 7a to identify a binding degree of GST-SNAIL protein and p53 protein. […] If MDM2 is over-expressed, proteolysis of p53 is induced to suppress apoptosis occurring through target genes of p53, and an […] of cells is induced. Although MDM2 is a representative control factor of p53, MDM2 is not applied to K-Ras mutant disease or mutant p53 containing disease.
# To perform GST pull down assay, three human SNAIL fragments (residues 1-90, 91-112, and 113-264) and p53 fragments (1-93 and 93-292) were expressed in E. coli as GST-fusion protein. Each of the fragments was loaded on to GSH-agarose, washed, and then eluted using a buffer containing 20 mM reduced glutathione. The eluted fractions were purified using an anionexchange chromatography (HitrapQ). The recombinant human p53 protein (residues 94-292) was expressed in E. coli using the vector pET28A which contains a hexa-histidine tag at the C terminus. The p53 protein including the hexa-histidine tag was purified using Ni-NTA affinity and a size exclusion chromatography (Superdex 200). To confirm the direct binding between p53 and SNAIL, agarose-bead conjugated GST or GST-SNAIL was incubated with His-p539 (histidine-p53) in PBS for 45 minutes at 4° C.. After washing with PBS, the precipitated protein was subjected into SDS-PAGE and western blotting.
# [7] = tested on: A549 cells; assay: Xenograft in vivo: A549 cells injected intraperitoneally into athymic mouse
# Method: Athymic mouse was obtained from Daehan Biolink Co. Ltd, and raised under temperature and light conditions (20-23° C., cycle of 12 hours light/12 hours darkness) and fed with sterile diet and water freely. After 2 weeks, 1×10^7 A549 cells were inoculated into the athymic mouse (n=21) by intraperitoneal injection. After 2 weeks, each group was divided into three subgroups and PBS, and 10 mg/kg or 20 mg/kg of the compound 5o were intraperitoneally injected once per week for 10 weeks, and vitality thereof was measured. This animal test was approved by the Animal Protection Committee of Pusan National University, and performed according to a guideline presented by the same.
# [8] = tested on: HCT116 (K-Ras mutant cancer cell line); assay: Cell death rate by tryphan blue cell counting, HCT116; assay type: cell-based
# [9] = tested on: K-Ras mutant cancer cell lines HCT116; assay: Western blot of p53 and p21 expression in K-Ras mutant HCT116 cells; assay type: cell-based; conditions: Homo sapiens, HCT-116, HCT116, 10 μM
# Method: To confirm whether the compounds prepared according to Examples 1 to 5 are effective for inhibiting SNAIL-p53 binding at cell level, the compound was treated into K-Ras mutant cancer cell lines HCT116 and results were analyzed by western blotting.
# Oncogenic K-ras suppresses the p53 activity through SNAIL. In the cell line HCT116, SNAIL is always expressed by K-Ras mutation and bound to p53 to suppress normal activity of p53. If the K-Ras mutant cancer cell line HCT116 is treated with a compound for suppressing SNAIL-p53 binding, p53 is normally activated and more expressed, and target genes of p53 are induced.
# First, western blotting was performed to detect expression of p53 and p21, which is a target gene of p53. All cell lines used in the present invention were obtained from ATCC, and maintained in 10% FBS-containing RPMI-1640 or DMEM. Protein was extracted with RIPA buffer solution and a membrane loaded with cell lysate through typical SDS-PAGE and gel transfer method was prepared. After blocking with 5% non-fat dry milk, the membrane was subjected into a typical western blot procedure with an antibody corresponding to each gene. Antibodies used herein were obtained from Cell signaling, SantaCruz. p53 activity was confirmed by expression of p21, which is a target gene of p53.
# [10] = tested on: A549 and Capan-1; assay: Expression of median (culture media) p53 in A549 and Capan-1; assay type: cell-based; conditions: A549 and Capan-1, FIG. 15B
# Method: (§2) Also, protease inhibitor (PMSF) and endocytosis inhibitor (Brefeldin A; BFA) were treated into A549 and Capan-1.
# [11] = tested on: A549; assay: Location of recombinant p53 in A549 whole cell lysate (endocytosis); assay type: cell-based; conditions: A549, FIG. 15C
# Method: First, A549 and MKN 45 cells were treated with recombinant p53, and their locations were identified. In comparison with control protein (His-lamin A) recovered from media, His-p53 was expressed in whole cell lysate of A549 (FIG. 15A). In addition, His-p53 was completely removed from MKN45 cells and culture media thereof (FIG. 15A).
# as §2
# [12] = tested on: K-Ras mutated cells; assay: Cell death in K-Ras mutated cells; assay type: cell-based; conditions: FIG. 11D
# [13] = 10 mg/kg i.p. once per week for 10 weeks
# [14] = 20 mg/kg i.p. once per week for 10 weeks
compound,measurement,setting,value
O=c1c(O)c(-c2ccc(O)c(O)c2)oc2cc(O)cc(O)c12 [Quercetin],Inhibition of SNAIL and p53 binding,[1],identified as an inhibitor of SNAIL-p53 interaction
CCC(=C/[C@H](C)C/C=C/C(C)=C/[C@@H](C)C(=O)[C@@H](C)[C@H](O)[C@@H](C)C/C(C)=C/C(=O)O)/C=C/[C@@H]1OC(=O)C=C[C@@H]1C [leptomycin B],SNAIL-mediated p53 reduction,[2],did not block the SNAIL-mediated p53 reduction
"COc1ccc(OC)c2c1C(=O)C=C(SCCC(=O)O)C2=O [Compound 5o, 3-(5,8-dimethoxy-1,4-dioxo-naphthalen-2-ylthio)propanoic acid]",Cancer cell death rate of compounds with respect to control,[3]; 5 μM,10 ± 2.9%
same,Cancer cell death rate of compounds with respect to control,[3]; 20 μM,18 ± 1.9%
same,Cancer cell death rate of compounds with respect to control,[4]; 5 μM,30 ± 4.5%
same,Cancer cell death rate of compounds with respect to control,[4]; 20 μM,62 ± 1.7%
same,"Expression ratio of gene to control, p21","[5]; MDA-MB 468, 5 μM",13.5
same,"Expression ratio of gene to control, p21","[5]; MDA-MB 468, 10 μM",25.9
same,"Expression ratio of gene to control, p21","[5]; MDA-MB 468, 20 μM",31.3
same,Expression of p21 (target gene of p53),"[5]; p53 mutant-type MDA-MB 468, FIG. 23",strong
same,Binding between GST-SNAIL protein and p53,[6],substantially weak
same,Tumor-caused death (survival),"[7]; 10 mg/kg and 20 mg/kg, 10 weeks, FIG. 24",tumor-caused death was prevented
same,Tumor development at tumor site A.C,[7]; [13],3 (regression)
same,Tumor development at tumor site Liver,[7]; [13],0
same,Tumor development at tumor site Lung,[7]; [13],0
same,Tumor development at tumor site Pancreas,[7]; [13],0
same,Tumor development at tumor site A.C,[7]; [14],2 (regression)
same,Tumor development at tumor site Liver,[7]; [14],0
same,Tumor development at tumor site Lung,[7]; [14],0
same,Tumor development at tumor site Pancreas,[7]; [14],0
same,Tumor in treated group,[7]; FIG. 25,almost no tumor
same,Overall anatomical abnormal finding according to weight loss or injection of the compound,[7]; FIG. 26,not observed
same,Cancer cell death rate of compounds with respect to control,[8]; 5 μM,35 ± 3.2%
same,Cancer cell death rate of compounds with respect to control,[8]; 20 μM,67 ± 2.5%
same,fold induction at 10 µM,"[9]; DMSO control = 1.0, read-out: Protein expression ratio of compound to control, p21",2.5
same,fold induction at 10 µM,"[9]; DMSO control = 1.0, read-out: Protein expression ratio of compound to control, p53",2.6
C[C@H]1CCC/C=C/[C@@H]2C[C@H](O)C[C@H]2[C@H](O)/C=C/C(=O)O1 [Brefeldin A],Expression of median p53,[10],increased expression of median p53
same,Location of recombinant p53 in whole cell lysate,[11],blocked the location of recombinant p53
COC(=O)Nc1nc2ccc(C(=O)c3cccs3)cc2[nH]1 [Nocodazole],SNAIL-mediated p53 reduction,[2],blocked the SNAIL or K-Ras mediated p53 reduction
COc1cc(/C=C/C(=O)O)ccc1O [ferulic acid],Cell death,[12],evoked cell death
O=S(=O)(F)Cc1ccccc1 [PMSF],Expression of median p53,[10],increased expression of median p53
